This assay has as its system Ramos cells. The assay can be described thus: Cytotoxicity in Ramos cells (cell death). It is filed as cell-based. The procedure: The compounds listed in Table 7 were tested for cytotoxicity in Ramos cells. The assay was conducted as described in K. M. Johnson et al. Chemistry & Biology 2005, 12, 485-496.

Structures are written as SMILES.

This note sets out measurements from US8497307B2, “Aryl guanidine F1F0-ATPase inhibitors and related methods” (The Regents of the University of Michigan, priority 2008, dated 2013).

For orientation: EC50 means the concentration at which the effect is half-maximal.

`O=C(N=C(Nc1ccc2[nH]c(=O)oc2c1)Nc1ccccc1C(F)(F)F)c1ccc(Br)cc1` [Compound I-17] showed an EC50 below 10 µM.

In turn, `O=C(N=C(Nc1ccc(-c2ccccc2)cc1)Nc1ccc2[nH]c(=O)[nH]c2c1)c1cccc(Cl)c1` [Compound I-15] returned an EC50 above 10 µM.

Turning to `O=C(N=C(Nc1ccc2[nH]c(=O)[nH]c2c1)Nc1ccccc1C(F)(F)F)c1ccc(Cl)cc1` [Compound I-2], the EC50 was above 10 µM.

The compound `CC(C)(C)c1ccccc1NC(=NC(=O)c1ccc(C#N)cc1)Nc1ccc2[nH]c(=O)oc2c1` [Compound I-103] gave an EC50 below 10 µM.

As to `CC(C)(C)c1ccccc1NC(=NC(=O)c1ccc(Br)cc1)Nc1ccc2[nH]c(=O)[nH]c2c1` [Compound I-5], the EC50 was below 10 µM.

With `CC(C)(C)c1cccc(NC(=NC(=O)c2ccc(C(F)(F)F)cc2)Nc2ccc3[nH]c(=O)oc3c2)c1` [Compound I-120], the EC50 is below 10 µM.

As to `CC(C)(C)c1ccccc1NC(=NC(=O)c1ccc(C(F)(F)F)cc1)Nc1ccc2[nH]ncc2c1` [II-18], the EC50 was below 10 µM.

`O=C(N=C(Nc1ccc(Cl)cc1)Nc1ccc2[nH]ncc2c1)c1ccc(Cl)cc1` [II-22] yielded a half-maximal effective concentration (EC50) below 10 µM.

Consider `O=C(N=C(Nc1cccc(C(F)(F)F)c1)Nc1ccc2[nH]ncc2c1)c1ccc(C(F)(F)F)cc1` [II-17], for which the EC50 is below 10 µM.

Regarding `O=C(N=C(Nc1ccc(-c2ccccc2)cc1)Nc1ccc2[nH]ncc2c1)c1ccc(F)cc1` [II-16], the EC50 is below 10 µM.

The compound `O=C(N=C(Nc1ccc2[nH]ncc2c1)Nc1ccccc1C(F)(F)F)c1ccc(Br)cc1` [II-1] showed an EC50 below 10 µM.

Compound `O=C(N=C(Nc1ccc(-c2ccccc2)cc1)Nc1ccc2[nH]ncc2c1)c1ccc(Br)cc1` [II-13] showed an EC50 below 10 µM.

Compound `O=C(N=C(Nc1cc(Cl)cc(Cl)c1)Nc1ccc2[nH]c(=O)oc2c1)c1ccc(C(F)(F)F)cc1` [Compound I-125] returned an EC50 below 10 µM.

`O=C(N=C(Nc1ccc(-c2ccccc2)cc1)Nc1ccc2[nH]c(=O)oc2c1)c1ccc(Br)cc1` [Compound I-29] yielded an EC50 below 10 µM.

Take `CC(C)(C)c1ccccc1NC(=NC(=O)c1ccc(Cl)cc1)Nc1ccc2[nH]c(=O)[nH]c2c1` [Compound I-6]: the EC50 was below 10 µM.

`N#Cc1ccc(C(=O)N=C(Nc2ccc3[nH]c(=O)oc3c2)Nc2ccccc2C(F)(F)F)cc1` [Compound I-104] displayed an EC50 below 10 µM.

In turn, `O=C(N=C(Nc1ccc2ccccc2c1)Nc1ccc2[nH]ncc2c1)c1cccc(Cl)c1` [II-11] returned an EC50 below 10 µM.

Consider `CC(C)(C)c1cccc(NC(=NC(=O)c2ccc(C(F)(F)F)c(F)c2)Nc2ccc3[nH]c(=O)oc3c2)c1` [Compound I-108], for which the EC50 was below 10 µM.

With `O=C(N=C(Nc1ccc(-c2ccccc2)cc1)Nc1ccc2[nH]c(=O)oc2c1)c1cccc(Cl)c1` [Compound I-31], the EC50 was below 10 µM.

For `N#Cc1cccc(C(=O)N=C(Nc2cccc(C(F)(F)F)c2)Nc2ccc3[nH]c(=O)oc3c2)c1` [Compound I-102], the EC50 was below 10 µM.

`O=C(N=C(Nc1ccc2[nH]c(=O)[nH]c2c1)Nc1ccccc1C(F)(F)F)c1ccc(Br)cc1` [Compound I-1]: the EC50 was above 10 µM.

`CC(C)(C)c1ccccc1NC(=NC(=O)c1cccc(Cl)c1)Nc1ccc2[nH]ncc2c1` [II-7] had an EC50 below 10 µM.

For `CC(C)(C)c1ccccc1NC(=NC(=O)c1ccc(F)cc1)Nc1ccc2[nH]ncc2c1` [II-8], the EC50 is below 10 µM.

`CC(C)(C)c1ccccc1NC(=NC(=O)c1cccc(C#N)c1)Nc1ccc2[nH]c(=O)oc2c1` [Compound I-100] had an EC50 below 10 µM.

`O=C(N=C(Nc1ccc2[nH]c(=O)oc2c1)Nc1ccccc1C(F)(F)F)c1ccc(F)cc1` [Compound I-20] returned an EC50 above 10 µM.

`O=C(N=C(NCCc1c[nH]cn1)Nc1ccccc1C(F)(F)F)c1ccc(Cl)cc1` [III-2] had an EC50 above 10 µM.

In the case of `O=C(N=C(Nc1ccc2ccccc2c1)Nc1ccc2[nH]c(=O)oc2c1)c1ccc(F)cc1` [Compound I-28], the EC50 is below 10 µM.

On to `O=C(N=C(NCCc1c[nH]cn1)Nc1ccc2ccccc2c1)c1cccc(Cl)c1` [III-10], for which the EC50 is below 10 µM.

Take `O=C(N=C(Nc1ccc2ccccc2c1)Nc1ccc2[nH]c(=O)[nH]c2c1)c1ccc(Br)cc1` [Compound I-9]: the concentration giving a half-maximal response (EC50) is above 10 µM.

In the case of `N#Cc1cccc(C(=O)N=C(Nc2ccc3[nH]c(=O)oc3c2)Nc2ccccc2C(F)(F)F)c1` [Compound I-101], the EC50 was above 10 µM.

In the case of `O=C(N=C(Nc1ccc2ccccc2c1)Nc1ccc2[nH]c(=O)[nH]c2c1)c1ccc(Cl)cc1` [Compound I-10], the 50% effective concentration (EC50) is above 10 µM.

The compound `O=C(N=C(Nc1ccc2[nH]c(=O)oc2c1)Nc1ccccc1C(F)(F)F)c1ccc(C(F)(F)F)cc1` [Compound I-92] came in with an EC50 below 10 µM.

With `N#Cc1cccc(C(=O)N=C(Nc2ccc3[nH]c(=O)oc3c2)Nc2ccccc2Cl)c1` [Compound I-113], the EC50 was below 10 µM.

`N#Cc1cccc(C(=O)N=C(Nc2ccc3[nH]c(=O)oc3c2)Nc2ccccc2C2CC2)c1` [Compound I-112]: the EC50 was below 10 µM.

Compound `O=C(N=C(NCCc1c[nH]cn1)Nc1ccccc1C(F)(F)F)c1ccc(Br)cc1` [III-1] came in with an EC50 above 10 µM.

Regarding `O=C(N=C(Nc1ccc(-c2ccccc2)cc1)Nc1ccc2[nH]c(=O)[nH]c2c1)c1ccc(Br)cc1` [Compound I-13], the EC50 was above 10 µM.

On to `O=C(N=C(Nc1ccc2[nH]c(=O)oc2c1)Nc1ccccc1C1CC1)c1ccc(C(F)(F)F)cc1` [Compound I-121], for which the EC50 is below 10 µM.

Turning to `N#Cc1cccc(C(=O)N=C(Nc2ccc(C3CC3)cc2)Nc2ccc3[nH]c(=O)oc3c2)c1` [Compound I-138], the EC50 is below 10 µM.

The compound `CC(C)(C)c1ccccc1NC(=NC(=O)c1ccc(F)cc1)NCCc1c[nH]cn1` [III-7] came in with an EC50 above 10 µM.

Turning to `O=C(N=C(Nc1ccc2[nH]ncc2c1)Nc1ccccc1C(F)(F)F)c1ccc(F)cc1` [II-4], the EC50 was below 10 µM.

`CC(C)(C)c1ccccc1NC(=NC(=O)c1cccc(C#N)c1)Nc1ccc2oc(=O)[nH]c2c1` [Compound I-130] gave an EC50 above 10 µM.

`O=C(N=C(NCCc1c[nH]cn1)Nc1ccc2ccccc2c1)c1ccc(Br)cc1` [III-8] returned an EC50 below 10 µM.

On to `CC(C)(C)c1ccccc1NC(=NC(=O)c1cccc(Cl)c1)Nc1ccc2[nH]c(=O)[nH]c2c1` [Compound I-7], for which the EC50 is below 10 µM.

For `O=C(N=C(Nc1ccc2ccccc2c1)Nc1ccc2[nH]c(=O)oc2c1)c1cccc(Cl)c1` [Compound I-27], the concentration giving a half-maximal response (EC50) is below 10 µM.

For `CC(C)(C)c1cccc(NC(=NC(=O)c2cccc(C#N)c2)Nc2ccc3[nH]c(=O)oc3c2)c1` [Compound I-111], the EC50 is below 10 µM.

Compound `CC(C)(C)c1ccccc1NC(=NC(=O)c1ccc(Cl)cc1)Nc1ccc2[nH]c(=O)oc2c1` [Compound I-22] came in with an EC50 below 10 µM.

The compound `O=C(N=C(Nc1cccc(Cl)c1)Nc1ccc2[nH]c(=O)oc2c1)c1ccc(C(F)(F)F)cc1` [Compound I-88] displayed an EC50 below 10 µM.

Consider `CC(C)(C)c1ccccc1NC(=NC(=O)c1ccc(C(F)(F)F)c(F)c1)Nc1ccc2[nH]c(=O)oc2c1` [Compound I-106], for which the EC50 is below 10 µM.

For `N#Cc1ccc(C(=O)N=C(Nc2cccc(C(F)(F)F)c2)Nc2ccc3[nH]c(=O)oc3c2)cc1` [Compound I-105], the EC50 is above 10 µM.

The compound `CC(C)(C)c1ccc(NC(=NC(=O)c2ccc(C(F)(F)F)cc2)Nc2ccc3[nH]c(=O)oc3c2)cc1` [Compound I-128] showed an EC50 below 10 µM.

For the compound `CC(C)(C)c1ccccc1NC(=NC(=O)c1cccc(Cl)c1)Nc1ccc2[nH]c(=O)oc2c1` [Compound I-23], the EC50 was below 10 µM.

`O=C(N=C(Nc1ccc2ccccc2c1)Nc1ccc2[nH]ncc2c1)c1ccc(F)cc1` [II-12] yielded an EC50 below 10 µM.

Regarding `O=C(N=C(Nc1cccc(Cl)c1)Nc1ccc2[nH]ncc2c1)c1ccc(Cl)cc1` [II-23], the EC50 was below 10 µM.

For the compound `CC(C)(C)c1ccccc1NC(=NC(=O)c1ccc(Br)cc1)Nc1ccc2[nH]ncc2c1` [II-5], the EC50 was below 10 µM.

In turn, `CC(C)(C)c1ccccc1NC(=NC(=O)c1cccc(Cl)c1)NCCc1c[nH]cn1` [III-6] showed an EC50 below 10 µM.

`O=C(N=C(Nc1ccc2[nH]ncc2c1)Nc1ccccc1C(F)(F)F)c1ccc(Cl)cc1` [II-2] showed an EC50 below 10 µM.

As to `CC(C)(C)c1ccccc1NC(=NC(=O)c1ccc(C(F)(F)F)c(F)c1)Nc1ccc2oc(=O)[nH]c2c1` [Compound I-131], the EC50 was below 10 µM.

Turning to `O=C(N=C(Nc1ccc2[nH]c(=O)[nH]c2c1)Nc1ccccc1C(F)(F)F)c1ccc(F)cc1` [Compound I-4], the EC50 was below 10 µM.

Turning to `O=C(N=C(Nc1ccc(Cl)cc1)Nc1ccc2[nH]c(=O)oc2c1)c1ccc(Cl)cc1` [Compound I-90], the concentration giving a half-maximal response (EC50) was above 10 µM.

`O=C(N=C(Nc1ccc(-c2ccccc2)cc1)Nc1ccc2[nH]c(=O)oc2c1)c1ccc(F)cc1` [Compound I-32] came in with an EC50 below 10 µM.

As to `CC(C)(C)c1ccccc1NC(=NC(=O)c1ccc(C(F)(F)F)cc1F)Nc1ccc2[nH]c(=O)oc2c1` [Compound I-107], the EC50 is below 10 µM.

`N#Cc1cccc(C(=O)N=C(Nc2ccc(Cl)cc2)Nc2ccc3[nH]c(=O)oc3c2)c1` [Compound I-115]: the EC50 was below 10 µM.

`O=C(N=C(Nc1ccc(-c2ccccc2)cc1)Nc1ccc2[nH]c(=O)[nH]c2c1)c1ccc(F)cc1` [Compound I-16] showed an EC50 above 10 µM.
